From patent publication US20210290651A1, “METHODS OF TREATING VIRAL INFECTIONS USING INHIBITORS OF NUCLEOTIDE SYNTHESIS PATHWAYS” (priority 2020, published 2021)
Where two headings read alike, the source gives them in different places.

What was measured:
CYP = CYP inhibition
Influenza A H1N1(BIRFLU) [1] = settings: MDCK (canine kidney); cited from earlier work
[2] = Cytotoxicity in H1-HeLa cells (XTT); settings: human, H1-HeLa cells (CRL-1958)
[3] = in vivo
in vitro = settings: monkey, CC50, Vero E6
[4] = system: A549 or HEp-2 (human epithelial); settings: A549 or HEp-2, RSV row; cited from earlier work
FMDV (A/GD/MM/2013) = settings: cited from earlier work
[5] = system: TZM-bl(human cervical tumor); settings: HIV1 row; cited from earlier work
RNA virus = experiment: Daily brequinar for five days in subject infected with an RNA virus (Example 19); assay type: in vivo; settings: single daily dose for five consecutive days, first peak in brequinar level
Procedure: The mechanism by which administration of a DHODH inhibitor according to a daily dosing regimen inhibits viral replication is illustrated below. […] Throughout the course of the dosing regimen, levels of intracellular pyrimidines, such as uridine, and viral replication are measured.

MDCK (canine kidney) = settings: H1N1(BIRFLU) row; cited from earlier work
HIV1 = settings: HIV1, TZM-bl(human cervical tumor); cited from earlier work
Ebola = settings: HeLa (human cervical tumor); cited from earlier work
Vero (monkey kidney) = settings: cited from earlier work
[6] = in vivo; remark: listed apart in the source
[7] = system: Respiratory Syncytial (RSV); settings: A549 or HEp-2 (human epithelial); cited from earlier work
[8] = Adverse events in subjects receiving brequinar intravenously once a week; settings: IV once a week, 209 subjects
Dengue = settings: A549 (human alveolar basal epithelial); cited from earlier work
[9] = system: HuH7 (human hepatocellular carcinoma); settings: cited from earlier work
Yellow Fever = settings: Vero (monkey kidney); cited from earlier work
[10] = system: Influenza A H1N1 (New Caledonia); settings: 16HBE (human bronchial epithelial); cited from earlier work
Vero76 (monkey kidney) = settings: Vero76, Zika row; cited from earlier work
FMDV (O/MY98/BY/2010) = settings: cited from earlier work
in vivo = settings: rodents
solid tumor malignancies = settings: 5-day period followed by 3-week gap, or once per week for three weeks followed by 1-week gap; cited from earlier work
VSV = settings: HuH7 (human hepatocellular carcinoma); cited from earlier work
Influenza A H1N1(BIRFLU) [11] = settings: A549 (human alveolar basal epithelial); cited from earlier work
HRV1A strain 2060 = experiment: Rhinovirus antiviral assay, inhibition of virus-induced cell killing (XTT) in H1-HeLa cells; assay type: cell-based; settings: Enterovirus
[12] = system: Influenza A H1N1(California); settings: MDCK (canine kidney); cited from earlier work
Influenza B (Brisbane) = settings: MDCK (canine kidney); cited from earlier work
Influenza A H3N2 = settings: Influenza A H3N2, MDCK (canine kidney); cited from earlier work
DHODH [13] = system: DHODH
SARS-CoV-2 = experiment: microbe, parasite or virus in culture; assay type: cell-based
[14] = system: 16HBE (human bronchial epithelial); settings: H1N1 (New Caledonia) row; cited from earlier work
AML = settings: cited from earlier work
CMV = settings: Primary Human Fibroblasts; cited from earlier work
[15] = system: A549 (human alveolar basal epithelial); settings: A549, Dengue row; cited from earlier work
[16] = system: A549 (human alveolar basal epithelial); settings: A549, H1N1(BIRFLU) row; cited from earlier work
[17] = system: acute myeloid leukemia (AML); experiment: Clinical response of patients with AML to brequinar-containing composition; assay type: in vivo, human
IBRS-2 (swine kidney) = settings: cited from earlier work
DHODH [18] = molecular target: DHODH (Homo sapiens, UniProt Q02127); settings: concentrations >1 μM
Zika = settings: Vero76 (monkey kidney); cited from earlier work
[19] = system: Primary Human Fibroblasts; settings: CMV row; cited from earlier work

Chain of DHODH (Homo sapiens, UniProt Q02127) (Q02127 whole entry): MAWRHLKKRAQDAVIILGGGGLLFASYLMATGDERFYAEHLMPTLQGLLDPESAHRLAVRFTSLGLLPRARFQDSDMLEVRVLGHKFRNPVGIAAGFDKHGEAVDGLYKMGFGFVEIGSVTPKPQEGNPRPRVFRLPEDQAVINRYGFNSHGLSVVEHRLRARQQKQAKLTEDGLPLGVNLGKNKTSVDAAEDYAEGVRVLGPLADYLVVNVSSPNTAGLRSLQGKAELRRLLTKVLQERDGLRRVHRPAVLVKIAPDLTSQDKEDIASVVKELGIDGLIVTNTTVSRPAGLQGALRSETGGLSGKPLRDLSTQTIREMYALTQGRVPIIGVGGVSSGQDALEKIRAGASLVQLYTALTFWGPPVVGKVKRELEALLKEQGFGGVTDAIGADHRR

For `Cc1c(-c2ccc(-c3ccccc3F)cc2)nc2ccc(F)cc2c1C(=O)O` [brequinar, 6-fluoro-2-(2′-fluoro-1,1′ biphenyl-4-yl)-3-methyl-4-quinoline carboxylic acid], the CYP inhibition (CYP) is listed as “Does not inhibit CYP”, the EC50 (Influenza A H1N1(BIRFLU) [1]) is listed as 580 nM and the CC50 at 3 days [2] is listed as 300 nM. The “cumulative effect of repeated doses” value [3] was “No cumulative effective of repeated doses”, the CC50 at 3 days (in vitro) was over 50000 nM and the CC50 [4] was over 10000 nM. For the same compound, the EC50 (FMDV (A/GD/MM/2013)) was under 3000 nM, the CC50 [5] was over 30000 nM and the intracellular pyrimidine levels (RNA virus) was “dramatic decrease in the intracellular pyrimidine pool”. For the same compound, the CC50 (MDCK (canine kidney)) was over 50000 nM, the EC50 (HIV1) was 40 nM and the EC50 (Ebola) was 100 nM. For the same compound, the CC50 (Vero (monkey kidney)) was over 50000 nM, the “equivalence of oral and IV formulations” value [6] was “oral and IV formulations are equivalent” and the EC50 [7] was 53 nM. For the same compound, the “Infection: No. of Patients” value [8] was 7, the “Infection: No. of Patients Experiencing the AE, Max Grade 1” value [8] was 4 and the “Infection: No. of Patients Experiencing the AE, Max Grade 2” value [8] was 3. For the same compound, the “Infection: No. of Patients Experiencing the AE, Max Grade 3” value [8] was 0, the “Infection: No. of Patients Experiencing the AE, Max Grade 4” value [8] was 0 and the “Infection: Percent” value [8] was 3.3%. For the same compound, the EC50 (Dengue) was 78 nM, the CC50 [9] was over 25000 nM and the EC50 (Yellow Fever) was 20 nM. For the same compound, the EC50 [10] was 140 nM, the CC50 (Vero76 (monkey kidney)) was over 50000 nM and the EC50 (FMDV (O/MY98/BY/2010)) was 30000 nM. For the same compound, the Kp (in vivo) was about 0.5, the “efficacy in solid tumor malignancies” value (solid tumor malignancies) was “ineffective” and the EC50 (VSV) was 14 nM. For the same compound, the EC50 (Influenza A H1N1(BIRFLU) [11]) was 140 nM, the EC50 (HRV1A strain 2060) was 50 nM and the EC50 [12] was 780 nM. The EC50 (Influenza B (Brisbane)) was 250 nM, the EC50 (Influenza A H3N2) was 620 nM and the “DHO plasma level threshold achieved” value (DHODH [13]; human, in vivo) was 133 ng/mL. The “time to achieve DHO plasma level threshold” value (DHODH [13]; patient with AML of Example 14) was “less than 2 hours”, the “E(Max)” value (SARS-CoV-2) was 88.2 and the “lowering of the EC50 of remdesivir by brequinar” value (SARS-CoV-2) was over 40 fold. The EC90 (SARS-CoV-2; Severe acute respiratory syndrome coronavirus 2, Vero C1008) was 345 nM, the Emax (SARS-CoV-2; Severe acute respiratory syndrome coronavirus 2, Vero C1008, Vero E6, read-out: maximal inhibitory activity (Emax) compared to the no infection control) was 88.2% and the CC50 [14] was over 50000 nM. The toxicity (AML; daily administration of high doses) was “weight loss, anemia, and thrombocytopenia”, the leukemia-initiating cell activity (AML; only when elevated plasma levels are maintained for extended periods) was “decreases leukemia-initiating cell activity” and the EC50 (CMV) was 800 nM. For the same compound, the CC50 [15] was over 5000 nM, the CC50 [16] was over 50000 nM and the response ([17]; first patient (Example 12): reduction in bone marrow blast count, improved extramedullary hematopoiesis, more differentiated peripheral blasts) was “positive response”. The response ([17]; patient of Example 14: trend towards differentiation of peripheral blasts) was “positive response”, the response ([17]; second patient (Example 13): lowering of peripheral blasts, increase in absolute neutrophil count, greater differentiation) was “positive response” and the CC50 (IBRS-2 (swine kidney)) was 100000 nM. For the same compound, the DHODH inhibition (DHODH [18]) was “almost completely inhibited”, the EC50 (Zika) was 80 nM and the CC50 [19] was over 50000 nM.
